# Laboratory results as given in ChEMBL document CHEMBL1201862, “PubChem BioAssay data set” (2004).
# “And” between values parts separate entries of the source, which are not always exact repeats. Equal values may be shown once.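 48-hour exposure; five concentrations; linearly interpolated endpoints. GI50 = concentration required for 50% inhibition of growth.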 The source made the active and inactive calls. Cut-off read from the data, not from the text of the source: active = GI50 up to about 1.1 µM and inactive = higher.
# Assays:
# Assay in all cases: DTP human tumour cell line panel, 48 h
# [1] = system: MDA-MB-435
# [2] = system: SF-268
# [3] = system: NCI-H226
# [4] = system: U-251
# [5] = system: MCF7
# [6] = system: SF-295
# [7] = system: RXF 393
# [8] = system: SW-620
# [9] = system: HCC 2998
# [10] = system: Malme-3M
# [11] = system: LOX IMVI
# [12] = system: OVCAR-8
# [13] = system: NCI-H460
# [14] = system: SN12C
# [15] = system: T47D
# [16] = system: A498
# [17] = system: SNB-75
# [18] = system: HT-29
# [19] = system: HCT-116
# [20] = system: NCI-H522
SMILES,GI50 [1],GI50 [2],GI50 [3],GI50 [4],GI50 [5],GI50 [6],GI50 [7],GI50 [8],GI50 [9],GI50 [10],GI50 [11],GI50 [12],GI50 [13],GI50 [14],GI50 [15],GI50 [16],GI50 [17],GI50 [18],GI50 [19],GI50 [20]
Cc1ccc(/C=C2/N/C(=N\N=C/C(O)C(O)C(O)C(O)CO)NC2=O)cc1 (stereo not given),> 100 µM (inactive),> 100 µM (inactive),> 100 µM (inactive),> 100 µM (inactive),> 100 µM (inactive),> 100 µM (inactive),> 100 µM (inactive),> 100 µM (inactive),> 100 µM (inactive),> 100 µM (inactive),> 100 µM (inactive),> 100 µM (inactive),> 100 µM (inactive),> 100 µM (inactive),> 100 µM (inactive) and 99.1 µM (inactive),> 100 µM (inactive),> 100 µM (inactive),> 100 µM (inactive),> 100 µM (inactive),> 100 µM (inactive)
COc1c(CC=C(C)C)c(O)c(C(CC(C)C)c2c(O)c(CC=C(C)C)c(O)c(C(C)=O)c2O)c(O)c1C(C)=O (stereo not given),1.94 µM (inactive),0.323 µM (active),1.24 µM (inactive),0.703 µM (active),0.385 µM (active),0.521 µM (active),0.427 µM (active),0.48 µM (active),0.537 µM (active),0.638 µM (active),1.57 µM (inactive),0.385 µM (active),0.589 µM (active),0.469 µM (active),0.385 µM (active),0.0843 µM (active),1.69 µM (inactive),0.723 µM (active),0.325 µM (active),0.2 µM (active)
O=CC(=C(I)I)c1ccccc1,2.07 µM (inactive),2.25 µM (inactive),13.4 µM (inactive),3.58 µM (inactive),3.11 µM (inactive),7.78 µM (inactive),1.88 µM (inactive),0.728 µM (active),10.5 µM (inactive),2.15 µM (inactive),1.66 µM (inactive),2.46 µM (inactive),17.1 µM (inactive),2.28 µM (inactive),3.55 µM (inactive),21.6 µM (inactive),2.64 µM (inactive),3.04 µM (inactive),0.855 µM (active),2 µM (inactive)
COc1cc(/C=C/c2ccccn2)cc(OC)c1OC,> 10 µM (inactive),> 10 µM (inactive),> 10 µM (inactive),> 10 µM (inactive),> 10 µM (inactive),> 10 µM (inactive),> 10 µM (inactive),> 10 µM (inactive),> 10 µM (inactive),> 10 µM (inactive),> 10 µM (inactive),> 10 µM (inactive),> 10 µM (inactive),> 10 µM (inactive),> 10 µM (inactive),> 10 µM (inactive),7.78 µM (inactive),> 10 µM (inactive),> 10 µM (inactive),> 10 µM (inactive)
CC(=O)N1N=C(N)CC1=O,> 100 µM (inactive),> 100 µM (inactive),> 100 µM (inactive),> 100 µM (inactive),> 100 µM (inactive),> 100 µM (inactive),> 100 µM (inactive),> 100 µM (inactive),> 100 µM (inactive),> 100 µM (inactive),> 100 µM (inactive),> 100 µM (inactive),> 100 µM (inactive),> 100 µM (inactive),> 100 µM (inactive),> 100 µM (inactive),> 100 µM (inactive),> 100 µM (inactive),> 100 µM (inactive),> 100 µM (inactive)
O=C(O)c1ccc(C(=O)Nc2cccc3ccccc23)c(C(=O)O)c1,> 100 µM (inactive),> 100 µM (inactive),> 100 µM (inactive),> 100 µM (inactive),> 100 µM (inactive),> 100 µM (inactive),> 100 µM (inactive),> 100 µM (inactive),> 100 µM (inactive),> 100 µM (inactive),> 100 µM (inactive),> 100 µM (inactive),> 100 µM (inactive),> 100 µM (inactive),> 100 µM (inactive),> 100 µM (inactive),> 100 µM (inactive),> 100 µM (inactive),> 100 µM (inactive),> 100 µM (inactive)
C/C(=N\Nc1nc2ccccc2[nH]1)c1cc2ccccc2cn1,0.182 µM (active),0.0399 µM (active),0.0382 µM (active),0.0318 µM (active),< 0.01 µM (active),0.166 µM (active),0.208 µM (active),< 0.012 µM (active),1.45 µM (inactive),< 0.01 µM (active),0.051 µM (active),< 0.018 µM (active),0.0661 µM (active),< 0.01 µM (active),< 0.0352 µM (active),0.0993 µM (active),0.317 µM (active),0.0104 µM (active),0.0158 µM (active),< 0.0165 µM (active)
O=C1c2cc3c(cc2CC12Cc1cc4c(cc1C2=O)CCC4)CCC3,> 100 µM (inactive),> 100 µM (inactive),> 100 µM (inactive),> 100 µM (inactive),> 100 µM (inactive),> 100 µM (inactive),21.8 µM (inactive),> 100 µM (inactive),> 100 µM (inactive),> 100 µM (inactive),> 100 µM (inactive),> 100 µM (inactive),> 100 µM (inactive),> 100 µM (inactive),> 100 µM (inactive),> 100 µM (inactive),> 100 µM (inactive),> 100 µM (inactive),> 100 µM (inactive),> 100 µM (inactive)
Nc1nc(Cl)c(N)c(NCC2(CO)CCC(CCc3ccccc3)C2)n1 (stereo not given),12.8 µM (inactive),15.8 µM (inactive),18.2 µM (inactive),14.4 µM (inactive),7.59 µM (inactive),10.6 µM (inactive),17.4 µM (inactive),2.08 µM (inactive),16.9 µM (inactive),1.83 µM (inactive),11.5 µM (inactive),14 µM (inactive),12.6 µM (inactive),22.8 µM (inactive),1.56 µM (inactive),14.6 µM (inactive),25.4 µM (inactive),13.3 µM (inactive),12.2 µM (inactive),10.4 µM (inactive)
CC(NP(=O)(c1ccccc1)c1ccccc1)c1ccccc1 (stereo not given),> 100 µM (inactive),> 100 µM (inactive),> 100 µM (inactive),> 100 µM (inactive),> 100 µM (inactive),> 100 µM (inactive),> 100 µM (inactive),> 100 µM (inactive),> 100 µM (inactive),> 100 µM (inactive),> 100 µM (inactive),> 100 µM (inactive),> 100 µM (inactive),> 100 µM (inactive),> 100 µM (inactive),> 100 µM (inactive),> 100 µM (inactive),> 100 µM (inactive),> 100 µM (inactive),> 100 µM (inactive)
CCCCCCC(=O)OC[n+]1ccc(-c2c(COC(=O)NC(C)C)c(COC(=O)NC(C)C)c3n2CCC3)cc1,> 100 µM (inactive),48.6 µM (inactive),> 100 µM (inactive),> 80.4 µM (inactive),45.8 µM (inactive),> 75.2 µM (inactive),> 65.8 µM (inactive),74.5 µM (inactive),> 100 µM (inactive),> 64.7 µM (inactive),42.9 µM (inactive),> 100 µM (inactive),35.6 µM (inactive),49.5 µM (inactive),> 100 µM (inactive),46.9 µM (inactive),> 68.1 µM (inactive),> 100 µM (inactive),> 89.9 µM (inactive),57 µM (inactive)
Clc1nc(Cl)c(CBr)c(Cl)n1,5.05 µM (inactive),8.02 µM (inactive),8.45 µM (inactive),4.06 µM (inactive),5.37 µM (inactive),6.11 µM (inactive),6.85 µM (inactive),1.89 µM (inactive),10.8 µM (inactive),4.16 µM (inactive),1.83 µM (inactive),3.27 µM (inactive),4.3 µM (inactive),2.63 µM (inactive),13.5 µM (inactive),18.1 µM (inactive),8.83 µM (inactive),4.29 µM (inactive),2.48 µM (inactive),1.5 µM (inactive)
